Patent US8871280B1, “Compositions and methods for treating fungal activity in plants or soil” (The United States of America, as represented by the …, priority 2011, dated 2014)

What was measured:
cucumber seeds = assay: Greenhouse assay of seed germination and phytotoxicity, soil treated with plant extract alone; details: cucumber, in vivo, 0.3 % of PE in soil (3000 ppm)
Experimental: Soil treatment: For each treatment, 300 g of dry greenhouse soli (Pro-mix, Premier Horticulture LTD, Red Hill, Pa.) was thoroughly mixed with Rhizoctonia inoculum and incubated for 15 days as described above. […] The infested soil treated with only the carrier solution served as an untreated control. Following the treatment, the soil was thoroughly stirred to mix the contents and incubated in a double polythene bag closed tightly in the dark at room temperature for four days for fumigation to occur. Following the incubation, the bag was opened to allow as much PE to dissipate as possible. This was done by sprinkling the surface soil with sterile water every other day, and stirring the soil once every day for seven days. For assay of effect on seed germination and phytotoxicity of the plant extracts, soil was treated with plant extract formulations alone.
Greenhouse studies: Treated soil from each treatment was distributed to 4-inch plastic pots into which 12 seeds of cucumbers (95-100% germination) were sown and lightly watered to keep soil moist. The treatments were color coded and pots were randomized across treatment. All plants were kept in a greenhouse between 20° C. (night) to 26° C. (day) with 14 h of light. There were three pots per treatment in each experiment, and the experiment was repeated three times. As positive control, a broad spectrum popular soil fungicide Banrot® 40 WP (The Scotts Company, Ohio) was used following manufacturer's recommendation to control the disease. Total number of seedlings without any sign of damping off in each pot was recorded and percentage of disease suppression were calculated four weeks after sowing cucumber seeds.

Rhizoctonia solani [1] = assay: Filter disk fumigation method, mycelial growth inhibition on PDA; format: cell-based, Rhizoctonia solani AG-4, isolate Rs 23A; details: for Fumig1 % inhibition: fumigation experiment 1; for Fumig2 % inhibition: fumigation experiment 2
Experimental: (§1) Fungal isolate and preparation of inoculum: Rhizoctonia solani AG-4, isolate Rs 23A is a highly virulent pathogenic isolate which infects many vegetables, ornamentals and turfgrasses (Lewis, J. A., and G. C. Papavizas, Soil Biology and Biochemistry, 9:195-201 (1987)). The fungus was grown in potato dextrose agar (PDA) plates and fungal plugs from the freshly growing mycelium were mixed with moist sterilized cracked wheat in a 2 L flask for 15 days in dark at 22° C. (Lakshman, D. K., et al., Proceedings of the National Academy of Science, USA, 95: 6425-6429 (1998)). The infested wheat was air dried in a sterile hood for 3 days, blended in a homogenizer and sieved through a mesh and stored at 2° C. before soil inoculation. A dose response of the inocula was carried out by thoroughly mixing using 0.25, 0.5, 0.75, 1.0, 1.25 and 1.50 g inoculums per Kg dry weight potting soil plus sterile water to maintain 25-30% moisture and incubating at room temperature for two weeks before sowing cucumber (cv muncher) seeds with the infested soil. The percent germination and post-emergence damping off of cucumber seedlings were recorded. The lowest inoculums dose that induced 100% postemergence damping off was estimated to be 1 to 1.25 g/Kg soil for inocula prepared over the span of the experiments. For soil fumigation with plant extracts (PEs), each time the minimum inoculum dose giving rise to 100% damping off was used.
In the second protocol, the chemical was kept not in direct contact with the fungus and we hypothesized that the plant extract will most likely influence the growth of the pathogen by fumigation action. In this approach, three sterile 15 mm filter paper (Whatman International Ltd, Maidstone, UK) disks were placed on the edge of each of three plates on the PDA. Each disk was impregnated in the center with various amounts (5-50 ul/disk) of the test solution/suspension. For negative control, only soybean oil was placed in the filter disk. […] The average radial growth was calculated and the experiment was repeated one more time. Percent growth inhibition was calculated as reported for poison bed assay.

Rhizoctonia solani [2] = assay: Greenhouse suppression of damping off of cucumber seedlings in R. solani infested soil amended with plant extract; format: in vivo, Rhizoctonia solani AG-4, isolate Rs 23A
Rhizoctonia solani [3] = assay: Poison food technique (contact action), mycelial growth inhibition in PDA; format: cell-based, Rhizoctonia solani AG-4, isolate Rs 23A; details: for PoisonB1 % inhibition: poison bed experiment 1; for PoisonB2 % inhibition: poison bed experiment 2
Experimental: as §1
In vitro bioassays: Two in vitro bioassay methods were used to investigate the mycelial growth inhibitory potentials of PEs. In the poison food technique, test chemical/plant extract was mixed at concentrations of 15, 30, 45, 60, 75, and 150 μl per 20 ml autoclaved PDA at 50° C., poured on three sterile disposable plastic plates (100×15 mm, Fisherbrand) at 20 ml/plate and cooled to room temperature to solidify (Dhingra, O.D., and J. B. Sinclair, 1995, Basic Plant Pathology Methods, 2nd Edition, Lewis Publishers, Boca Raton and London). […] Each plate was seeded in the center with a 5 mm diameter agar disk of the freshly grown Rhizoctonia pathogen, mycelial side facing the medium, and sealed with stretched Parafilm® M (Fisher Scientific). The plates were incubated in the dark at room temperature and when the pathogen reached to the edge of the plates in the control treatment (soybean oil), radial measurement of fungal growth in plates treated with PEs were recorded by taking three measurements from each plate. The experiment was repeated one more time. The percent mycelial growth inhibition (MGI) due to PE was calculated using the following formula: […] where dc=Avg. radial growth in mm of pathogen in control plate; dt=avg. radial growth in mm of pathogen in treated plate.

Rhizoctonia solani [4] = assay: Fungicidal vs fungistatic potential (regrowth of mycelial plugs on fresh PDA, 7 days); format: cell-based, Rhizoctonia solani AG-4, isolate Rs 23A
Experimental: The fungicidal and fungistatic potential of the PEs were determined by the method described by Garber and Houstan (Garber R. H., and B. R. Houston, Phytopathology, 49: 449-450 (1959)). In brief, three 5 mm diameter plugs were taken from the peripheral mycelial growth from each plate and placed in a fresh PDA plate. Following incubation at room temperature for 7 days, observations were recorded for new mycelial growth (fungistatic) or no mycelial growth (fungicidal). As control, peripheral mycelial plugs from soybean oil amended PDA plates were checked for fresh mycelial growth in fresh PDA plates.

Cc1ccc(C(C)C)c(O)c1 [Thymol]
Avg. seed germination (+ PE only) (cucumber seeds): 8.00
Fumig1 % inhibition (Rhizoctonia solani [1]; amount oil 15 μL/20 mL plate): 77%
Fumig2 % inhibition (Rhizoctonia solani [1]; amount oil 15 μL/20 mL plate): 91%
Fumig1 % inhibition (Rhizoctonia solani [1]; amount oil 30 μL/20 mL plate): 86%
Fumig2 % inhibition (Rhizoctonia solani [1]; amount oil 30 μL/20 mL plate): 93%
Fumig1 % inhibition (Rhizoctonia solani [1]; amount oil 45 μL/20 mL plate): 90%
Fumig2 % inhibition (Rhizoctonia solani [1]; amount oil 45 μL/20 mL plate): 94%
Fumig1 % inhibition (Rhizoctonia solani [1]; amount oil 60 μL/20 mL plate): 89%
Fumig1 % inhibition (Rhizoctonia solani [1]; amount oil 75 μL/20 mL plate): 93%
Fumig1 % inhibition (Rhizoctonia solani [1]; amount oil 150 μL/20 mL plate): 96%
% Disease suppression (+ PE + R. solani) (Rhizoctonia solani [2]; cucumber damping off, soil amendment at 0.3% (v/w), four weeks after sowing): 27.75%
Avg. seed Germination (+ PE + R. solani) (Rhizoctonia solani [2]; cucumber, 12 seeds sown per pot, infested soil amended with 0.3% PE): 3.33
PoisonB1 % inhibition (Rhizoctonia solani [3]; amount oil 15 μL/20 mL plate): 100%
PoisonB2 % inhibition (Rhizoctonia solani [3]; amount oil 15 μL/20 mL plate): 42%
PoisonB1 % inhibition (Rhizoctonia solani [3]; amount oil 30 μL/20 mL plate): 100%
PoisonB2 % inhibition (Rhizoctonia solani [3]; amount oil 30 μL/20 mL plate): 100%
PoisonB1 % inhibition (Rhizoctonia solani [3]; amount oil 45 μL/20 mL plate): 100%
PoisonB2 % inhibition (Rhizoctonia solani [3]; amount oil 45 μL/20 mL plate): 100%
PoisonB1 % inhibition (Rhizoctonia solani [3]; amount oil 60 μL/20 mL plate): 100%
PoisonB2 % inhibition (Rhizoctonia solani [3]; amount oil 60 μL/20 mL plate): 100%
PoisonB1 % inhibition (Rhizoctonia solani [3]; amount oil 75 μL/20 mL plate): 100%
PoisonB2 % inhibition (Rhizoctonia solani [3]; amount oil 75 μL/20 mL plate): 100%
PoisonB1 % inhibition (Rhizoctonia solani [3]; amount oil 150 μL/20 mL plate): 100%
PoisonB2 % inhibition (Rhizoctonia solani [3]; amount oil 150 μL/20 mL plate): 100%
Effect (fumigation) (Rhizoctonia solani [4]; amount oil 15 μL/20 mL plate): S
Effect (poison bed, contact action) (Rhizoctonia solani [4]; amount oil 15 μL/20 mL plate): S
Effect (fumigation) (Rhizoctonia solani [4]; amount oil 30 μL/20 mL plate): S
Effect (poison bed, contact action) (Rhizoctonia solani [4]; amount oil 30 μL/20 mL plate): S
Effect (fumigation) (Rhizoctonia solani [4]; amount oil 45 μL/20 mL plate): S
Effect (poison bed, contact action) (Rhizoctonia solani [4]; amount oil 45 μL/20 mL plate): S
Effect (fumigation) (Rhizoctonia solani [4]; amount oil 60 μL/20 mL plate): S
Effect (poison bed, contact action) (Rhizoctonia solani [4]; amount oil 60 μL/20 mL plate): S
Effect (fumigation) (Rhizoctonia solani [4]; amount oil 75 μL/20 mL plate): S
Effect (poison bed, contact action) (Rhizoctonia solani [4]; amount oil 75 μL/20 mL plate): S
Effect (fumigation) (Rhizoctonia solani [4]; amount oil 150 μL/20 mL plate): S
Effect (poison bed, contact action) (Rhizoctonia solani [4]; amount oil 150 μL/20 mL plate): S
Fungicidal vs fungistatic nature (Rhizoctonia solani [4]; in vitro, fumigation and contact action): fungistatic
